Tests used:
Type in all cases: cell-based, Staphylococcus aureus
S. aureus 133 = experiment: Minimum inhibitory concentration (MIC), S. aureus 133; conditions: S. aureus 133
Method: (§1) The minimum inhibitory concentration (MIC) is the minimum concentration of an antibiotic with which the growth of a test microbe is inhibited over 18-24 h. The inhibitor concentration can in these cases be determined by standard microbiological methods (see, for example, The National Committee for Clinical Laboratory Standards. Methods for dilution antimicrobial susceptibility tests for bacteria that grow aerobically; approved standard-fifth edition. NCCLS document M7-A5 [ISBN 1-56238-394-9]. NCCLS, 940 West Valley Road, Suite 1400, Wayne, Pa. 19087-1898 USA, 2000). The test substances are thereby initially provided in 1:2 dilution series into 96-well round-bottom microtiter plates (Greiner) double-concentrated in 50 μl of test medium. The aerobically growing test microbes (e.g. staphylococci and enterococci), which are incubated overnight on Columbia blood agar plates (Becton-Dickinson), are, after resuspension in 0.9% NaCl, adjusted to a microbe count of about 5×10^7 microbes/ml and then diluted 1:150 in cation-adjusted MH medium (test medium). 50 μL of this suspension are pipetted onto the test preparations provided in the microtiter plates. The cultures are incubated at 37° C. for 18-24 hours. For microaerophilically growing microbes (e.g. streptococci), 2% lysed horse blood in the final concentration is added to the medium and the cultures are incubated in the presence of 5% CO2. The lowest substance concentration in each case at which no visible bacterial growth occurs any longer is defined as the MIC and is reported in μg/ml.
(§2) The minimum inhibitory concentration (MIC) is the minimum concentration of an antibiotic with which the growth of a test microbe is inhibited over 18-24 h. The inhibitor concentration can in these cases be determined by standard microbiological methods (see, for example, The National Committee for Clinical Laboratory Standards. Methods for dilution antimicrobial susceptibility tests for bacteria that grow aerobically; approved standard-fifth edition. NCCLS document M7-A5 [ISBN 1-56238-394-9]. NCCLS, 940 West Valley Road, Suite 1400, Wayne, Pa. 19087-1898 USA, 2000). The MIC of the compounds of the invention is determined in the liquid dilution test on the 96-well microtiter plate scale. The bacterial microbes are cultivated in a minimal medium (18.5 mM Na2HPO4, 5.7 mM KH2PO4, 9.3 mM NH4Cl, 2.8 mM MgSO4, 17.1 mM NaCl, 0.033 μg/ml thiamine hydrochloride, 1.2 μg/ml nicotinic acid, 0.003 μg/ml biotin, 1% glucose, 25 μg/ml of each proteinogenic amino acid with the exception of phenylalanine; [H.-P. Kroll; unpublished]) with the addition of 0.4% BH broth (test medium). In the case of Enterococcus faecium L4001, heat-inactivated fetal calf serum (FCS; GibcoBRL, Germany) is added to the test medium in a final concentration of 10%. Overnight cultures of the test microbes are diluted to an OD578 of 0.001 (to 0.01 in the case of enterococci) in fresh test medium, and incubated 1:1 with dilutions of the test substances (1:2 dilution steps) in test medium ([…]). The cultures are incubated at 37° C. for 18-24 hours; enterococci in the presence of 5% CO2.
(§3) The lowest substance concentration in each case at which no visible bacterial growth occurs any longer is defined as the MIC.
(§4) The minimum inhibitory concentration (MIC) is the minimum concentration of an antibiotic with which the growth of a test microbe is inhibited over 18-24 h. The inhibitor concentration can in these cases be determined by standard microbiological methods with modified medium in an agar dilution test (see, for example, The National Committee for Clinical Laboratory Standards. Methods for dilution antimicrobial susceptibility tests for bacteria that grow aerobically; approved standard-fifth edition. NCCLS document M7-A5 [ISBN 1-56238-394-9]. NCCLS, 940 West Valley Road, Suite 1400, Wayne, Pa. 19087-1898 USA, 2000). The bacterial microbes are cultivated on 1.5% agar plates which contain 20% defibrinated horse blood. […]

S. aureus T17 = experiment: Minimum inhibitory concentration (MIC), biphenomycin-resistant S. aureus T17
Method: as §1, §2, §3, §4

S. aureus RN4220 = experiment: Resistance rate of S. aureus RN4220 on agar containing biphenomycin B; conditions: S. aureus RN4220, agar plate containing 2 μg/ml biphenomycin B (10×MIC), 37° C. overnight
Method: (§5) The S. aureus Strain RN4220BiR^R is isolated in vitro. For this purpose, 100 μl portions of an S. aureus RN4220 cell suspension (about 1.2×10^8 cfu/ml) are plated out on an antibiotic-free agar plate (18.5 mM Na2HPO4, 5.7 mM KH2PO4, 9.3 mM NH4Cl, 2.8 mM MgSO4, 17.1 mM NaCl, 0.033 μg/ml thiamine hydrochloride, 1.2 μg/ml nicotinic acid, 0.003 μg/ml biotin, 1% glucose, 25 μg/ml of each proteinogenic amino acid with the addition of 0.4% BH broth and 1% agarose) and on an agar plate containing 2 μg/ml biphenomycin B (10×MIC), and incubated at 37° C. overnight. Whereas about 1×10^7 cells grow on the antibiotic-free plate, about 100 colonies grow on the antibiotic-containing plate, corresponding to a resistance rate of 1×10^−5. Some of the colonies grown on the antibiotic-containing plate are tested for the biphenomycin B MIC. One colony with an MIC of >50 μM is selected for further use, and the strain is referred to as RN4220Bi^R.

S. aureus RN4220Bi^R = experiment: MIC against biphenomycin-resistant S. aureus RN4220Bi^R; conditions: colony grown on the antibiotic-containing plate
Method: as §5

## NC[C@H](O)C[C@@H]1NC(=O)[C@@H](N)Cc2cc(ccc2O)-c2ccc(O)c(c2)C[C@@H](C(=O)O)NC1=O [Biphenomycin B, biphenomycin B, reference compound]
S. aureus 133
  MIC S. aureus 133: <0.03 μ/ml
S. aureus T17; biphenomycin-resistant S. aureus T17
  MIC S. aureus T17: >32 μ/ml
S. aureus T17; colony isolated from kidney of mice treated with biphenomycin B
  MIC of selected colony (strain T17): > 50 µM
S. aureus RN4220
  resistance rate: 1×10^−5
S. aureus RN4220Bi^R
  MIC of selected colony (strain RN4220Bi^R): > 50 µM
